This experiment deals with Beta-lactamase (Pseudomonas aeruginosa, UniProt Q79MP6). Kind of experiment: Competitive inhibition of Pseudomonas aeruginosa beta-lactamase IMP-1 assessed as formation of 4-nitrothiophenolate at pH 7 using CENTA as chromogenic substrate.

SMILES strings stand for the structures.

The record followed here is BindingDB's records for doi:10.1016/j.bmcl.2011.10.116 (The University of Queensland, 2012).

Chain of Beta-lactamase (Q79MP6 whole entry): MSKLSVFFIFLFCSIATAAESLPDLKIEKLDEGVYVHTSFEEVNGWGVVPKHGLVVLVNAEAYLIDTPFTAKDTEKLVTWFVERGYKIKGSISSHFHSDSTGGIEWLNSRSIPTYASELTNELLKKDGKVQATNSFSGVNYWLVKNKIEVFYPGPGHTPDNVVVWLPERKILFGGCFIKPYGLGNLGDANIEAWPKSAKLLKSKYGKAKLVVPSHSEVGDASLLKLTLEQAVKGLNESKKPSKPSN

A word on the Ki: it is the dissociation constant of the complex between target and ligand, obtained from inhibition or displacement. Turning to `NC(=S)NNC(=O)c1ccc(C(=O)c2ccccc2Cl)cc1`, the Ki stood at 14 µM.

Consider `NC(=S)NNC(=O)c1ccc(C(=O)c2cccc([N+](=O)[O-])c2)cc1`, for which the Ki was found to be 16 µM.

Turning to `NC(=S)NNC(=O)c1ccc(C(=O)c2ccc([N+](=O)[O-])cc2)cc1`, the Ki worked out at 11 µM.

With `NC(=S)NNC(=O)c1ccc(C(=O)c2ccccc2)cc1`, the Ki turned out to be 13 µM.

As for `O=C(c1ccccc1)c1ccc(-c2nnc(S)[nH]2)cc1`, the Ki is 75 µM.

As to `Cc1ccc(C(=O)c2ccc(C(=O)NNC(N)=S)cc2)cc1`, the Ki was determined as 41 µM.

Consider `NC(=S)NNC(=O)c1ccc(Cc2ccccc2)cc1`, for which the Ki was 18 µM.

For `NC(S)=NNC(=O)c1ccccc1`, the Ki came to 19 µM.
